Read-outs that look alike come from different tables or passages of the source.
Legend:
MELK [1] = target: T1, MELK (Homo sapiens, UniProt Q14680); assay: Z’-LYTE enzymatic assay; type: biochemical
[2] = tested on: select off-target kinases; assay: Off-target kinase inhibition (Z’-LYTE/Adapta), comparison; type: biochemical; conditions: from Table 1 IC50 values
MLK3 = MLK3 (Homo sapiens, UniProt Q16584); assay: ICKP radiometric kinase assay; type: biochemical; conditions: read-out: % AR (% kinase activity remaining)
Sequence of MLK3 (Q16584 whole entry): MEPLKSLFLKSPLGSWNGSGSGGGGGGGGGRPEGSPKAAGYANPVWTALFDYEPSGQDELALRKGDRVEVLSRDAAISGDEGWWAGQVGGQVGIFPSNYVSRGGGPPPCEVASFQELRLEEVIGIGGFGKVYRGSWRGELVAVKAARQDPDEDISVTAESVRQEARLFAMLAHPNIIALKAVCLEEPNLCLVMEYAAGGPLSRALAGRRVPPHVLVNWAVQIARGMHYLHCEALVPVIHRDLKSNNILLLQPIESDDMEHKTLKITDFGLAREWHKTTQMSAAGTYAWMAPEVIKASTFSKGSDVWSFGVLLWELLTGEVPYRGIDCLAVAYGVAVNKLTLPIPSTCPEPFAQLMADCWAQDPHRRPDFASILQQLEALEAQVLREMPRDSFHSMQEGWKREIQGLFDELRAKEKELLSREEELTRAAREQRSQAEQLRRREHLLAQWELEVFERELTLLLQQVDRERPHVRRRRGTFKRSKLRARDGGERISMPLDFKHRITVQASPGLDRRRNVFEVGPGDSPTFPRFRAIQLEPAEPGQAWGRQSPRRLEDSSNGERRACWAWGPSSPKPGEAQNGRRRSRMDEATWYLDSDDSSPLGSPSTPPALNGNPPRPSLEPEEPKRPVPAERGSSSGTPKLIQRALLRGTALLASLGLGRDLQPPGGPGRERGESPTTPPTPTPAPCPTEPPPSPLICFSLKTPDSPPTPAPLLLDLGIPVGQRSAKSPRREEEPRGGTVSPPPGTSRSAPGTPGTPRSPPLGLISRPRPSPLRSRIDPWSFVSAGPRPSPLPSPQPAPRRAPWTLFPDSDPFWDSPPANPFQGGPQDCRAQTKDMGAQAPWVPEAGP

MELK [3] = target: T1, MELK; assay: Cellular kinase engagement assay (KiNativ), ATP-biotin probe pull-down; type: cell-based; conditions: MDA-MB-468 cells, different doses, with MG132, 1 hour
From the text: (§1) After confirming HTH-01-091 as a potent MELK inhibitor in biochemical assays, we next investigated whether HTH-01-091 engages MELK in cells. We performed a KiNativ assay to measure HTH-01-091 engagement with the ATP binding pocket of MELK, which would prevent active-site labeling from a lysine-reactive ATP-biotin probe ([Patricelli et al., 2007]). […] As a control, ERK1/2 pull-down was not affected by HTH-01-091 treatment, consistent with our profiling data showing no binding affinity of HTH-01-091 to ERK1/2 (Figure 2A, Figure 1—source data 1).
(§2) Figure 2. […] (A) Immunoblots analyzing the pull-down levels of MELK and ERK1/2 by ATP-biotin probes and streptavidin beads from MDA-MB-468 cells treated with different doses of HTH-01-091 and […] MG132 for 1 hour. […] See also Figure 2—figure supplement 1 for rescue experiments using carfilzomib and MLN4924. (C) 3-day antiproliferation assays of HTH-01-091 and other MELK inhibitors tested in MDA-MB-468 (basal) and ZR-75-1 (luminal) cells. Values represent two independent experimental mean ±SD. Error bars shorter than the height of the symbol are not drawn. […] Figure 2—figure supplement 1. […]
(§3) MDA-MB-468 cells on 10 cm plates were treated with HTH-01-091 at indicated concentrations and MG132 (10 μM) for an hour. […] The beads were boiled at 95°C for 10 min and analyzed by immunoblotting.

ERK1/2 = assay: as above; type: cell-based; conditions: MDA-MB-468 cells, with MG132, 1 hour
From the text: as §1, §2, §3

CDK7 = CDK7 (Homo sapiens, UniProt P50613); assay: Adapta kinase assay; conditions: Adapta assay at [ATP]=apparent Km; read-out: Biochemical IC50 CDK7
Sequence of CDK7 (P50613 whole entry): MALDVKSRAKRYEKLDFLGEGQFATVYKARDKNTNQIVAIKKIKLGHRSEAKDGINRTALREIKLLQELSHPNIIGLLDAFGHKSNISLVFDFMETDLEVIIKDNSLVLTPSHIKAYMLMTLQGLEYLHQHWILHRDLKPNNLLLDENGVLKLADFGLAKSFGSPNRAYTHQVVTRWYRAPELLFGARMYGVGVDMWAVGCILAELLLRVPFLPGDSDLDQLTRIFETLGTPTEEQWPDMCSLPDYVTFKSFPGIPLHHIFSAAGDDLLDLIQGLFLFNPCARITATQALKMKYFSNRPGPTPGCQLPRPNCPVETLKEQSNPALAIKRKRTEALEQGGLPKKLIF
Sequence of CDK7 (P51946 whole entry partner): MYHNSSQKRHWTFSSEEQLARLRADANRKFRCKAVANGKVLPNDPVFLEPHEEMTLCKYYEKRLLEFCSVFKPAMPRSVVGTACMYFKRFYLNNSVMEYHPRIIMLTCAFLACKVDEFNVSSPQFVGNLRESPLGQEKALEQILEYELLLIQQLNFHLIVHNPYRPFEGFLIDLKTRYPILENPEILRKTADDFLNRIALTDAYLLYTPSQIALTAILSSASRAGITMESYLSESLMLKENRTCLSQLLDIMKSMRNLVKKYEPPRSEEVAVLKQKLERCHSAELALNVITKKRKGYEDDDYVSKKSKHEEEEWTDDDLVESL
Sequence of CDK7 (P51948 whole entry partner): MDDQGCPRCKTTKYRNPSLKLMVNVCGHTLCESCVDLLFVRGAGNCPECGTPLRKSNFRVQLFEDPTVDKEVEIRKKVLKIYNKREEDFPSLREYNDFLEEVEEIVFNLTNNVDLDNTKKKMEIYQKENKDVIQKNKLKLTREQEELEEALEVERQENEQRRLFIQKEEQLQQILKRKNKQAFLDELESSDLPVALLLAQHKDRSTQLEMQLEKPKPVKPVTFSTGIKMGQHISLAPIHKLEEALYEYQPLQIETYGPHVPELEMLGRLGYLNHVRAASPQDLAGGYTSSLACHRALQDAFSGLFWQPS

[4] = tested on: WT and MELK−/− MDA-MB-468 cells; assay: 3-day proliferation assays comparing WT and MELK−/− cells; type: cell-based; conditions: clone E9 vs clone C7
From the text: We compared a WT clone (clone E9) and a MELK−/− clone (clone C7) with the parental cell line, and observed no significant difference in growth rate or cell cycle distribution (Figure 3A,B,C).
Figure 3. WT and MELK−/− MDA-MB-468 cells have similar growth rates, cell cycle distribution, and sensitivity to MELK inhibitors. (A) Immunoblots for MELK and GAPDH in WT (clone E9) and MELK−/− (clone C7) clones isolated from MDA-MB-468 cells transfected with sgMELK-3 and Cas9. See also Figure 3—figure supplements 1 and 2, and Figure 3—source data 1 for the details of the generation of MELK−/− clones. (B) 5-day proliferation curves comparing the growth rates of parental, WT, and MELK−/− MDA-MB-468 cells. Values represent two independent experimental mean ±SD. (C) Cell cycle analysis comparing WT and MELK−/− MDA-MB-468 cells. Values represent triplicate mean ±SD. […] Values represent duplicate mean ±SD. Error bars shorter than the height of the symbol are not drawn. Figure 3—source data 1. Genotype analysis of single cell clones selected from MDA-MB-468 cells transfected with Cas9/sgMELK-3. Figure 3—figure supplement 1. CRISPR/Cas9-mediated knockout of MELK in MDA-MB-468 cells. (A) Tracking of Indels by Decomposition (TIDE) analysis ([Brinkman et al., 2014]) of MDA-MB-468 cells transfected with Cas9/sgMELK-3 and enriched by the transfection marker OFP. […]

AMPK = assay: ICKP radiometric kinase assay; conditions: 1 μM

T1 sequence (Q14680 whole entry): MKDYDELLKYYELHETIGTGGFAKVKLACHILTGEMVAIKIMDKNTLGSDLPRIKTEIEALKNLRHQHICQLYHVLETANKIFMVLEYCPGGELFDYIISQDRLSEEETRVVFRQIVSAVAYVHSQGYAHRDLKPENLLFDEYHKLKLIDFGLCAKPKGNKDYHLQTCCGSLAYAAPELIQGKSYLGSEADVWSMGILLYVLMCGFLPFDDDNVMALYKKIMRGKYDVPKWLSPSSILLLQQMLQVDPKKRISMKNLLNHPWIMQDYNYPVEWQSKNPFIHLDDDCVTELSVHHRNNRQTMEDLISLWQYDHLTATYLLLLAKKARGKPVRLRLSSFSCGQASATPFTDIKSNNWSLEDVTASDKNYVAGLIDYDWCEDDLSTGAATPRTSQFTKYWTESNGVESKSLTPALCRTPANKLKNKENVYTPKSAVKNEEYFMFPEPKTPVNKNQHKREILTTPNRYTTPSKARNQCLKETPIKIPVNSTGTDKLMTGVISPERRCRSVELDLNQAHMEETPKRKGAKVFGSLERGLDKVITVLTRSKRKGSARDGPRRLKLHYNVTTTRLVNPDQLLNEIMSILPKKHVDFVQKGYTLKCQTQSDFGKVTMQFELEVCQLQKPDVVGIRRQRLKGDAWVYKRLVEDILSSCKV

Structure (SMILES)	IC50 (MELK [1]; Z’-LYTE assay at [ATP]=apparent Km, read-out: Biochemical IC50 MELK) [nM]	IC50 (MELK [1]; measured by Z’LYTE biochemical assay, class symbols in Figure 2C, read-out: Potency (MELK)) [nM]	IC50 (MELK [1]; note column of Table 3, read-out: Note: MELK IC50) [nM]	reduced inhibition of the select off-target kinases compared with JW-7-25-1 [2]	remaining activity at 1 µM (MLK3) [%]	MELK pull-down by streptavidin beads (ATP-biotin probe) (MELK [3])	ERK1/2 pull-down (control) (ERK1/2)	IC50 (CDK7) [nM]	difference in sensitivity between WT and MELK−/− cells [4]	% AR (% kinase activity remaining) (AMPK) [%]
CN(C)C[C@H]1CC[C@H](N2C(=O)NCc3cnc4ccc(-c5cc(Cl)c(O)c(Cl)c5)cc4c32)CC1 [HTH-01-091, 9-(3,5-dichloro-4-hydroxyphenyl)-1-(trans-4-((dimethylamino)methyl)cyclohexyl)-3,4-dihydropyrimido[5,4 c]quinolin-2(1H)-one]	10.5	< 20	10.5	20- to 140 fold	54	dose-dependently decreased MELK pull-down	not affected	1230	–	–
CC(=O)c1cnc2ccc(-c3cc(Cl)c(O)c(Cl)c3)nc2c1N[C@H]1CC[C@H](CN(C)C)CC1 [OTSSP167]	–	–	–	–	–	–	–	–	did not observe differences in cell viability	2

— PMC5605198, “MELK is not necessary for the proliferation of basal-like breast cancer cells” (eLife, 2017)
